According to patent publication US20180163180A1, “METHOD OF ENHANCING SOMATIC CELL REPROGRAMMING WITH THE ACETYLLYSINE READER BRD3R” (THE UAB RESEARCH FOUNDATION, INC ., priority 2015, published 2018):

Assays:
[1] = system: Human fibroblasts; experiment: CyQUANT cell proliferation assay of reprogramming cells; assay type: cell-based; conditions: before day 9 of reprogramming
Protocol: • Cell proliferation assays: Human fibroblasts were transduced with reprogramming viruses. Forty-eight hs post transduction, the reprogramming cells were plated at 4,000 cells/well of a 96-well plate. Five replicates were performed for each condition. On days 0, 1, 3, 5, 7, 9, 11 and 13, the cells were measured using a CyQUANT® NF Cell Proliferation Assay Kit (Life Technologies; c35007) per manufacturer's instruction.

[2] = system: reprogramming cells; experiment: Senescence analysis (SA-β-galactosidase staining) of reprogramming cells; assay type: cell-based, human; conditions: early stages of reprogramming (day 5)
Text: • Senescence analysis: Prepare reprogramming cells as stated in the reprogramming section. At day 5 of reprogramming, stain cells for endogenous p-galactosidase using the Cell Senescence Kit (Cell Signaling Technology, #9860s) per manufacturer's instruction. Count the β-galactosidase^+ cells in 10 randomly selected fields in each treated groups. The total cells were counted based on DAPI staining.

[3] = system: reprogramming cells; experiment: Cell cycle analysis by flow cytometry of reprogramming cells; assay type: cell-based, human; conditions: day 6 of reprogramming, compared to controls
Protocol: • Cell Cycle Analysis: Harvest cells by trypsin solution. Fix cell with 70% cold ethanol overnight at 4° C. The next day, wash cells with PBS. Treat cells with 0.2 mg/ml RNase A in PBS containing 0.1% Triton X-100 at 37° C. for 1 h. Add PI at a final concentration of 10 μg/ml. Keep the cells in dark and at 4° C. until analysis. Analyze on BD LSRFortessa. Percentage of cells at each cell cycle phases was determined with Watson (pragmatic) (Watson et al., (1987) Cytometry 8: 1-8) and Dean-Jett-Fox (Fox M. H. (1980) Cytometry 1: 71-77) models on FlowJow.

[4] = system: reprogramming BJ cells; experiment: RNA sequencing of cells on day 3 of reprogramming; assay type: cell-based, human
Protocol: • RNA sequencing: mRNA sequencing was performed on the Illumina HiSeq2500 using the sequencing reagents and flow cells providing up to 300 Gb of sequence information per flow cell. Briefly, the quality of the total RNA was assessed using the Agilent 2100 Bioanalyzer followed by 2 rounds of polyA+ selection and conversion to cDNA. The stranded mRNA library generation kits were used per manufacturer's instructions (Agilent, Santa Clara, Calif.). Library construction consists of random fragmentation of the polyA mRNA, followed by cDNA production using random primers with inclusion of Actinomycin D in the first strand reaction. The ends of the cDNA are repaired, polyA-tailed and adaptors ligated for indexing (4 different barcodes per lane) during the sequencing runs. The cDNA libraries were quantitated using qPCR in a Roche LightCycler 480 with the Kapa Biosystems kit for library quantitation (Kapa Biosystems, Woburn, Mass.) prior to cluster generation. Clusters were generated to yield approximately 725 K to 825 K clusters/mm^2. Cluster density and quality were determined during the run after the first base addition parameters were assessed. Paired end 2×50 bp sequencing runs were run to align the cDNA sequences to the reference genome.
• Bioinformatics: 25-65 million of paired 51 bp reads were obtained for each sample. RNA sequencing reads were mapped to the human reference genome (GRCh37/hg19) using TopHat (v2.0.13) (Kim et al., (2013) Genome Biol. 14: R36). For more accurate mapping, the mean insert sizes and the standard deviations were calculated using Picard-tools (v1.126), and were passed to the mapper along with a Gene Transfer File (GTF version GRCh37.70) and the data were re-aligned. Read count tables were generated using HT-seq (v0.6.0) (Anders et al., (2015) Bioinformatics 31: 166-169). Deferential Expression (DE) analysis was performed using DESeq (v3.0) (Anders & Huber (2010) Genome Biol. 11: R106). Cufflinks v2.2.1 (Trapnell et al., (2010) Nat. Biotechnol. 28: 511-515) and Cummerbund v3.0 (Goff et al., (2014): Visualization and Exploration of Cufflinks High-throughput Sequencing Data., pp. 45) were also used for calculating expression levels in FPKM and data visualization. The BigWig files were generated using Bedtools (v2.17.0) (Quinlan & Hall (2010) Bioinformatics 26: 841-842) and bedGraphToBigWig tool (v4). For the analysis of micro-array data, Limma v3.0 (Smyth G. K., (2005) in Bioinformatics and Computational Biology Solutions Using R and Bioconductor: Gentleman et al., Eds. (Springer: New York): Ch. 23: pp. 397-420) was used Gene Ontology (GO) analysis was conducted using PANTHER (Mi et al., (2013) Nat. Protoc. 8: 1551-1566), Cytoscape-BiNGO (Saito et al., (2012) Nat. Methods 9: 1069-1076) and DAVID (Huang da et al., (2009) Nat. Protoc. 4: 44-57). Lists of mitotic genes were compiled based on the results from the three tools.

Substance: BRD3R: BRD3 with Reprogramming activity; 556 aa isoform of human BRD3 (AAH32124, SEQ ID NO: 47), encoded by cDNA L61
- overall proliferation rate vs control cells [1]: comparable overall proliferation rates
- cell senescence (SA-β-galactosidase staining) [2]: Reduced cell senescence
- number of cells in G1 [3]: statistically reduced
- population of cells in G2/M phases [3]: statistically increased
- expression of CDKN2A, CDKN2B, CDKN1A, TP53 (p53-p21 pathway) ([4]; BRD3R reprogramming cells): Downregulation was not seen
- AFC of CEP78 ([4]; day 3 of reprogramming): 0.94 ×
- AFC of ERG ([4]; day 3 of reprogramming): 0.84 ×
- AFC of PSMB9 ([4]; day 3 of reprogramming): 0.87 ×
- number of upregulated genes in the mitotic category ([4]; of 335 GO mapped genes, day 3): 128 genes
- AFC of the 23 always upregulated mitotic genes ([4]; p<0.05, day 3): at least 2.24 ×
- total mitotic genes statistically upregulated in at least one comparison ([4]; ≥1.5×, p<0.05, 4 IFC and 1 AFC comparisons, day 3): 185 genes
- number of genes upregulated in BRD3R-expressing cells ([4]; ≥1.7×, p<0.05, ADNRC≥50, day 3): 401 genes
